Experiments:
[1] = authors' conclusion in J.Chem.Soc. Perkin Trans I, 779, 1972; cited from earlier work
[2] = anti-allergic activity (general statement, no test detailed); conditions: in our hands
Rat PCA response = experiment: Rat Passive Cutaneous Anaphylaxis (PCA) test; format: in vivo, Wistar rats
Method: All of the coumarins prepared in the preceeding Examples were submitted for biological testing. The test system was the Rat Passive Cutaneous Anaphylaxis (PCA) test described below in (ii)
i. Serum containing heat labile homocytotropic antibody was raised in rats by a method similar to that used by Mota. (I. Mota Immunology 1964, 7,681).
Male Wistar rats of 250-300 g, were injected intraperitoneally with 0.5 of Bordatella pertussis vaccine (containing 4 × 10^10 dead organism per ml.) and subcutaneously with 0.5 ml of an emulsion of adjuvant. Rats were bled by cardiac puncture on day 18, the blood was pooled and separated and serum stored at -20° and thawed only once before use.
ii. The P.C.A. test was similar to that described by Ovary and Bier (A. Ovary and O. E. Bier, Proc.Soc.Exp. Biol.Med. 1952, 81, 584) and Goose and Blair (J. Goose and AMJ. N. Blair, Immunology 1969, 16, 769).
0.1 ml of each of six twofold serial dilutions of the serum in 0.9% saline were injected intradermally into separate sites on the shaved dorsal surface of 250-350 g. Wistar rats. 72 hours later the animals were challenged by i.v. injection of 0.3 ml of 1% ovalbumin mixed with 0.1 ml of a 5% solution of pontamine sky blue dye in isotonic saline buffered with pH. 7.2 Sorenson buffer (P.B.S.). The rats were killed after 20 minutes and the diameter of the blue wheals at the antibody injection sites were measured. The starting dilution of the serum was adjusted so that there was no response, after challenge, at the site of injection of the highest dilution and a maximum response at the lowest dilution. Typically, six twofold serial dilutions of the serum from 1/4 to 1/128 were used.
Compounds were tested for their ability to reduce the diameter of the wheals at the injection sites of dilutions of antibody which on all the controls have less than maximum response. Amounts of the compounds were administered to rats each amount to a test group of six animals at a specified time prior to intravenous challenge with ovalbumin. The diameters of the blue wheals which developed on the tests group of animals were compared with those on a control group of six animals treated in the same way as the test group, but which had not received the compound under test.
% Inhibition of P.C.A. = 100 (1 - a/b)
a = The mean of the sum of the diameters of the wheals produced in the test group of animals at those antibody sites where all the control group of animals gave less than maximum response.
b = The mean of the sum of diameters of the wheals produced in the control group of animals at those antibody sites where all the animals gave less than maximum response.
The preferred method of administration was a solution of the test compound dissolved in pH 7.2 buffer and neutralised with sodium bicarbonate.

[3] = 1 h, time 60 mins prior to challenge
[4] = 0.5 h, time 30 mins prior to challenge
[5] = 10 min, time 10 mins prior to challenge

Cc1c(-c2nnn[nH]2)c(=O)oc2ccccc12 [Example 1, 4-Methyl-3-(tetrazol-5-yl) coumarin, reference compound]
anti-allergic activity [1]: no anti-allergic activity
antiallergic activity [2]: substantial antiallergic activity
inhibition in vivo at 25 mg/kg (Rat PCA response; [3]): 38%
inhibition in vivo at 100 mg/kg (Rat PCA response; [3]): 48%

Cc1ccc2c(C)c(-c3nnn[nH]3)c(=O)oc2c1 [Example 6, 4,7-Dimethyl-3-(tetrazol-5-yl) coumarin]
inhibition in vivo at 25 mg/kg (Rat PCA response; [4]): 42%
inhibition in vivo at 100 mg/kg (Rat PCA response; [4]): 45%

CCc1cc2oc(=O)c(-c3nnn[nH]3)c(C)c2cc1CC [Example 12, 6,7-Diethyl-4-methyl-3(tetrazol-5-yl) coumarin]
inhibition in vivo at 25 mg/kg (Rat PCA response; [5]): -6%
inhibition in vivo at 100 mg/kg (Rat PCA response; [5]): -1%
inhibition in vivo at 25 mg/kg (Rat PCA response; [3]): 10%
inhibition in vivo at 100 mg/kg (Rat PCA response; [3]): 42%

CCCc1c(-c2nnn[nH]2)c(=O)oc2ccccc12 [Example 10, 4-n-Propyl-3-(tetrazol-5-yl) coumarin]
inhibition in vivo at 25 mg/kg (Rat PCA response; [4]): -12%
inhibition in vivo at 100 mg/kg (Rat PCA response; [4]): 45%

Cc1c(-c2nnn[nH]2)c(=O)oc2ccc(Cl)cc12 [Example 3, 6-Chloro-4-methyl-3-(tetrazol-5-yl) coumarin]
inhibition in vivo at 25 mg/kg (Rat PCA response; [3]): 28%
inhibition in vivo at 100 mg/kg (Rat PCA response; [3]): 35%

Cc1c(-c2nnn[nH]2)c(=O)oc2c(Cl)cccc12 [Example 7, 8-Chloro-4-methyl-3-(tetrazol-5-yl) coumarin]
inhibition in vivo at 25 mg/kg (Rat PCA response; [4]): 19%
inhibition in vivo at 100 mg/kg (Rat PCA response; [4]): 26%

CCc1c(-c2nnn[nH]2)c(=O)oc2ccccc12 [Example 9, 4-Ethyl-3-(tetrazol-5-yl) coumarin]
inhibition in vivo at 25 mg/kg (Rat PCA response; [4]): 19%
inhibition in vivo at 100 mg/kg (Rat PCA response; [4]): 70%

Cc1c(-c2nnn[nH]2)c(=O)oc2ccc(Br)cc12 [Example 2, 6-Bromo-4-methyl-3-(tetrazol-5-yl) coumarin]
inhibition in vivo at 25 mg/kg (Rat PCA response; [3]): 36%
inhibition in vivo at 100 mg/kg (Rat PCA response; [3]): 44%

Cc1cc2oc(=O)c(-c3nnn[nH]3)c(C)c2cc1C [Example 4, 3-(Tetrazol-5-yl)-4,6,7-trimethyl coumarin]
inhibition in vivo at 25 mg/kg (Rat PCA response; [4]): 47%
inhibition in vivo at 100 mg/kg (Rat PCA response; [4]): 70%

Cc1c(-c2nnn[nH]2)c(=O)oc2c1ccc1ccccc12 [Example 8, 7,8-Benzo-4-methyl-3-(tetrazol-5-yl) coumarin]
inhibition in vivo at 25 mg/kg (Rat PCA response; [3]): 20%
inhibition in vivo at 100 mg/kg (Rat PCA response; [3]): 30%

O=c1oc2ccccc2c(-c2ccccc2)c1-c1nnn[nH]1 [Example 11, 4-Phenyl-3-(tetrazol-5-yl) coumarin]
inhibition in vivo at 25 mg/kg (Rat PCA response; [4]): -10%
inhibition in vivo at 100 mg/kg (Rat PCA response; [4]): 14%

Cc1ccc2oc(=O)c(-c3nnn[nH]3)c(C)c2c1 [Example 5, 4,6-Dimethyl-3-(tetrazol-5-yl) coumarin]
inhibition in vivo at 25 mg/kg (Rat PCA response; [3]): 32%
inhibition in vivo at 100 mg/kg (Rat PCA response; [3]): 19%

From patent US4059704A, “Tetrazole coumarin derivatives” (Beecham Group Limited, priority 1973, dated 1977)
